In BindingDB's records for doi:10.1007/pl00005133 (Eli Lilly, 1998):
Several values for one entry are separate records, joined by “and”; a condition that tells them apart may be missing. Identical values can stand only once.

Each compound was assayed against 5-hydroxytryptamine receptor 2B (Homo sapiens, UniProt P41595).
5-hydroxytryptamine receptor 2B, sequence (P41595 whole entry): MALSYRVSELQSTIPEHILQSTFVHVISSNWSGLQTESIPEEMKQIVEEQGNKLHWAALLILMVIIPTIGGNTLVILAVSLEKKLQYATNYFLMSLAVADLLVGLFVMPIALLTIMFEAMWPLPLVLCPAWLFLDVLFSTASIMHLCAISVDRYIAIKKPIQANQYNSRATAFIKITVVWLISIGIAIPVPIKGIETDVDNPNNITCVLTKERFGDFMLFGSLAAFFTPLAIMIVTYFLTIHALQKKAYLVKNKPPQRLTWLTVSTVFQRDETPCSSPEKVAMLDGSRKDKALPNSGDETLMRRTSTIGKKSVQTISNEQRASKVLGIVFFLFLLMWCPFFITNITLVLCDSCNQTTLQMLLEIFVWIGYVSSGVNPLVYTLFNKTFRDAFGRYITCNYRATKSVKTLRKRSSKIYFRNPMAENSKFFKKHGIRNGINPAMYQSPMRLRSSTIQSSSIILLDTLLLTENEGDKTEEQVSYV

SMILES | Ki
Cc1nc2sccn2c(=O)c1CCN1CCC(=C(c2ccc(F)cc2)c2ccc(F)cc2)CC1 | 1.64 nM and 0.4 nM
c1ccc2c(N3CCNCC3)cccc2c1 | 0.89 nM
O=C1NCN(c2ccccc2)C12CCN(CC1COc3ccccc3O1)CC2 (stereo not drawn) [8-(2,3-Dihydro-benzo[1,4]dioxin-2-ylmethyl)-1-phenyl-1,3,8-triaza-spiro[4.5]decan-4-one] | 475 nM and 173 nM
O=C(CCCN1CCC2(CC1)C(=O)NCN2c1ccccc1)c1ccc(F)cc1 [8-[4-(4-fluorophenyl)-4-oxidanylidene-butyl]-1-phenyl-1,3,8-triazaspiro[4.5]decan-4-one] | 592 nM and 317 nM
CC(O)C(C)OC(=O)C1CC2c3cccc4c3c(cn4C(C)C)CC2N(C)C1 (stereo not drawn) [CAS_60634-51-7] | 1.53 nM and 0.74 nM
CCN(CC)C(=O)[C@@H]1C=C2c3cccc4[nH]c(Br)c(c34)C[C@H]2N(C)C1 [LSD,2-Bromo] | 8.09 nM and 7.47 nM
CN1C[C@@H](NS(=O)(=O)N(C)C)C[C@@H]2c3cccc4c3c(cn4C)C[C@H]21 [MESULERGINE] | 3.3 nM and 1.92 nM
CN(C)CCC(c1ccc(Cl)cc1)c1ccccn1 (stereo not drawn) [clorfeniramina] | 6800 nM and 4170 nM
